Source: patent US20020035998A1, “Method for treatment of cancer and infectious disease” (priority 1995, published 2002)

Tests used:
Daudi target cells = experiment: NK cell cytotoxicity (NKCC), 6-hour 51Cr-release assay against Daudi target cells; type: cell-based, human; conditions: for NKCC (Cell Lysis %) ± SEM after treatment with IFN / NKCC (Cell Lysis %) ± SEM after treatment with Ran + IFN / NKCC (Cell Lysis %) ± SEM after treatment with Ran: Percoll fraction 8; for NKCC (Cell Lysis %) ± SEM after treatment with Ran + IFN: agonist 10^−4 M plus ranitidine 10^−4 M plus IFN-α 25 U/ml; for NKCC (Cell Lysis %) ± SEM after treatment with Ran: agonist 10^−4 M plus ranitidine 10^−4 M; for influence on the effect of serotonin on NKCC: ketanserin and ondansetron in equimolar concentrations; for NKCC after treatment with Medium: no IFN; for potency and effect in intensifying baseline NKCC and restoring the NK cell's response to IFN-α: compared with serotonin, Table 4
Text: (§1) MNC were obtained from peripheral venous blood from healthy human blood donors by Ficoll-Hypaque centrifuging, followed by Percoll density-gradient fractionation (Timonen and Saksela, 1980, J. Immunol. Methods 36, 285-291; Hellstrand and Hermodsson, 1990, Scand. J. Immunol. 31, 631-645).
(§2) The target cells used in these experiments were K562, an NK-cell sensitive erythroleukemic cell line, or Daudi, a relatively NK-insensitive EBV-transformed B-cell lymphoblastoid cell line.
(§3) The NKCC was determined six times as the specific ^51Cr-release for a NMNC: target-cell ratio of between 30:1 and 3.8:1 in two-fold dilution gradients. The suspensions of MNC/target cells were incubated in microplates at 37° C. for 6 hours (Daudi) or 16 hours (K562). The supernatant solution was then collected and examined for radioactivity in a gamma counter. The maximum ^51Cr-release was measured in target cell cultures treated with Triton X-100. The NKCC was calculated as the cell lysis % by the formula 100×(experimental release−spontaneous release/maximum release−spontaneous release)=cell lysis %.
(§4) In the results shown in Table 2, MNC from five different donors were used. All compounds were added to mixtures of MNC and target cells at the start of a 6 h (Daudi) or 16 h (K562) effecter and target cell incubation. The effecter cells were obtained from Percoll fractions 7-8, containing 33-55% monocytes.
In the experiment shown in Table 3, culture medium (control), histamine (10^−4 M), dimaprit (10^−4 M), ranitidine (ran) (10^−4 M) and/or IFN-α (25 U/ml) were added at the start of a 6-hour ^51Cr release assay using Daudi target cells. The data are representative of three similar experiments. NKCC is given as mean cell lysis %±SEM of six determinations. The effecter cells were recovered from a low-density Percoll fraction 8, containing around 40% monocytes.
In the experiment shown in Table 4, culture medium (control), serotonin, 8-OH-DPAT (+)-ALK and/or IFN-α (25 U/ml) were added at the start of a 6-hour ^51Cr-release assay against Daudi target cells. The NKCC is given as cell lysis %±SEM of six determinations. The effector cells were recovered from the low-density Percoll fraction 7, containing around 36% monocytes.

K562 target cells = experiment: NK cell cytotoxicity (NKCC), 16-hour 51Cr-release assay against K562 target cells; type: cell-based, human; conditions: for cytotoxicity against K562 in the NK cell-concentrated lymphocyte fraction: eluted lymphocytes without monocytes, 16-hour assay; for basal cytotoxicity of lymphocytes in mixtures of monocytes and lymphocytes / monocyte induced inhibition of the NK cell response to IFN-α: mixtures of eluted monocytes and NK cell-enriched lymphocytes; for NK cell cytotoxicity (NKCC) after treatment: serotonin 10^−4 M and/or IFN-α 25 U/ml, 16 h, 10^4 K562, mean ± SEM of six
Text: as §1, §2, §3
A low-density Percoll fraction was separated by counterflow centrifuge elusion (CCE) in a monocyte and in a lymphocyte fraction. The monocyte fraction was concentrated to >90% purity whereupon the contaminating cells consisted of large lymphocytes. The lymphocyte fractions obtained by CCE contained <3% monocytes, determined by morphology and Leu-M3 (CD14) antigen expression. The lymphocytes were […], […] , CD3^+/16^−/56^− T cells (45-50%), CD3^+/16^+/56^+ cells (1-5%), determined by flow cytometry.
J The eluted monocytes and/or the NK cell-concentrated low-density lymphocytes were treated with IFN-α and histamine/serotonin. The compounds were added, separately or in combination, to mixtures of MNC and K562 target cells at the start of a 16-hour ^51Cr-release assay. The cytotoxicity against K562 in the NK cell-concentrated lymphocyte fraction was increased by IFN-α and unaffected by histamine or serotonin. […] The addition of eluted monocytes to the NK cell concentrated lymphocytes suppressed the baseline cytotoxicity to K562.
In the experiments reported in Table 1, eluted lymphocytes were mixed with monocytes as shown in the table, in a total volume of 150 μl. The data are NKCC (mean ±SEM) of six determinations. Serotonin 10^−4 M and/or IFN-α (25 U/ml) was added at the start of a 16-hour microcytotoxicity test against 10^4 K562 target cells.
as §4
Cells from the monocyte-containing Percoll fraction 8 were incubated with culture medium, histamine (10^−4 M) or serotonin (10^−4 M) in the presence of IFN-α (0-100 U/ml). The data shown are NKCC (cell lysis %; mean±SEM of six determinations). The compounds were added at the start of a 16 h microcytotoxicity test against K 562 target cells.

[1] = agonist 10^−4 M plus IFN-α 25 U/ml, Daudi 6 h
[2] = named agent(s) only, no further additive: histamine, dimaprit, ranitidine 10^−4 M, IFN-α 25 U/ml, Daudi 6 h, Percoll fraction 8, around 40% monocytes
[3] = agonist 10^−4 M plus IFN-α 25 U/ml, Daudi 6 h, Percoll fraction 7
[4] = agonist 10^−4 M, Daudi 6 h, Percoll fraction 7, around 36% monocytes

CN(C)CCCSC(=N)N [Dimaprit, dimaprit, reference compound]
NKCC (Cell Lysis %) ± SEM after treatment with IFN (Daudi target cells; [1]): 32.6 ± 1%
NKCC (Cell Lysis %) ± SEM after treatment with Ran + IFN (Daudi target cells; Daudi 6 h): 0.5 ± 0.5%
NKCC (Cell Lysis %) ± SEM after treatment with Ran (Daudi target cells; Daudi 6 h): 0.4 ± 0.4%
NKCC (cell lysis % ± SEM) (Daudi target cells; [2]): 6.4 ± 1%
effect of histamine on monocyte-induced suppression of resting and IFN-α-activated NK cells: influence of the agent (Daudi target cells; simultaneous treatment, Table 3): imitated

Cc1nccn1CC1CCc2c(c3ccccc3n2C)C1=O (stereo not drawn) [ondansetron, reference compound]
influence on the effect of serotonin on NKCC (Daudi target cells; ranitidine 10^−4 M): did not influence the effect of serotonin

NCCc1c[nH]cn1 [Histamine, histamine]
NKCC (cell lysis % ± SEM) (Daudi target cells; Exp 4, Daudi, 30:1, histamine 10^−4 M plus IFN 25 U/ml): 31.7 ± 1%
NKCC (cell lysis % ± SEM) (Daudi target cells; Exp 4, Daudi, 30:1, histamine 10^−5 M plus IFN 25 U/ml): 28.3 ± 1%
NKCC (cell lysis % ± SEM) (Daudi target cells; Exp 4, Daudi, 30:1, histamine 10^−5 M, medium (no IFN)): 3.5 ± 2%
NKCC (cell lysis % ± SEM) (Daudi target cells; Exp 4, Daudi, 30:1, histamine 10^−6 M plus IFN 25 U/ml): 14.1 ± 1%
NKCC (cell lysis % ± SEM) (Daudi target cells; Exp 4, Daudi, 30:1, histamine 10^−6 M, medium (no IFN)): 1.1 ± 0.3%
NKCC (cell lysis % ± SEM) (Daudi target cells; Exp 4, Daudi, MNC/target 30:1, histamine 10^−4 M, medium (no IFN)): 4.4 ± 1%
NKCC (cell lysis % ± SEM) (Daudi target cells; Exp 5, Daudi, 30:1, histamine 10^−4 M plus IFN 25 U/ml): 61.3 ± 3%
NKCC (cell lysis % ± SEM) (Daudi target cells; Exp 5, Daudi, 30:1, histamine 10^−4 M, medium (no IFN)): 13.5 ± 1%
NKCC (cell lysis % ± SEM) (Daudi target cells; Exp 5, Daudi, 30:1, histamine 10^−5 M plus IFN 25 U/ml): 52.3 ± 2%
NKCC (cell lysis % ± SEM) (Daudi target cells; Exp 5, Daudi, 30:1, histamine 10^−5 M, medium (no IFN)): 9.7 ± 1%
NKCC (cell lysis % ± SEM) (Daudi target cells; Exp 5, Daudi, 30:1, histamine 10^−6 M plus IFN 25 U/ml): 31.7 ± 1%
NKCC (cell lysis % ± SEM) (Daudi target cells; Exp 5, Daudi, 30:1, histamine 10^−6 M, medium (no IFN)): 2.5 ± 1%
NKCC (Cell Lysis %) ± SEM after treatment with IFN (Daudi target cells; [1]): 31.7 ± 0.3%
NKCC (Cell Lysis %) ± SEM after treatment with Ran + IFN (Daudi target cells; Daudi 6 h): 1.6 ± 0.2%
NKCC (Cell Lysis %) ± SEM after treatment with Ran (Daudi target cells; Daudi 6 h): 1.5 ± 0.3%
NKCC (cell lysis % ± SEM) (Daudi target cells; [2]): 9.4 ± 0.3%
NKCC (cell lysis % ± SEM) (K562 target cells; Exp 1, K562, 15:1, histamine 10^−4 M plus IFN 25 U/ml): 76.4 ± 3%
NKCC (cell lysis % ± SEM) (K562 target cells; Exp 1, K562, 15:1, histamine 10^−5 M plus IFN 25 U/ml): 74.1 ± 1%
NKCC (cell lysis % ± SEM) (K562 target cells; Exp 1, K562, 15:1, histamine 10^−5 M, medium (no IFN)): 54.7 ± 1%
NKCC (cell lysis % ± SEM) (K562 target cells; Exp 1, K562, 15:1, histamine 10^−6 M plus IFN 25 U/ml): 66.0 ± 2%
NKCC (cell lysis % ± SEM) (K562 target cells; Exp 1, K562, 15:1, histamine 10^−6 M, medium (no IFN)): 39.2 ± 1%
NKCC (cell lysis % ± SEM) (K562 target cells; Exp 1, K562, MNC/target 15:1, histamine 10^−4 M, medium (no IFN), monocyte-containing Percoll fractions 7-8): 55.5 ± 1%
NKCC (cell lysis % ± SEM) (K562 target cells; Exp 2, K562, 15:1, histamine 10^−4 M plus IFN 25 U/ml): 67.9 ± 2%
NKCC (cell lysis % ± SEM) (K562 target cells; Exp 2, K562, 15:1, histamine 10^−4 M, medium (no IFN)): 32.4 ± 1%
NKCC (cell lysis % ± SEM) (K562 target cells; Exp 2, K562, 15:1, histamine 10^−5 M plus IFN 25 U/ml): 66.2 ± 1%
NKCC (cell lysis % ± SEM) (K562 target cells; Exp 2, K562, 15:1, histamine 10^−5 M, medium (no IFN)): 27.4 ± 1%
NKCC (cell lysis % ± SEM) (K562 target cells; Exp 2, K562, 15:1, histamine 10^−6 M plus IFN 25 U/ml): 55.4 ± 1%
NKCC (cell lysis % ± SEM) (K562 target cells; Exp 2, K562, 15:1, histamine 10^−6 M, medium (no IFN)): 23.2 ± 2%
NKCC (cell lysis % ± SEM) (K562 target cells; Exp 3, K562, 15:1, histamine 10^−4 M plus IFN 25 U/ml): 71.9 ± 1%
NKCC (cell lysis % ± SEM) (K562 target cells; Exp 3, K562, 15:1, histamine 10^−4 M, medium (no IFN)): 43.3 ± 1%
NKCC (cell lysis % ± SEM) (K562 target cells; Exp 3, K562, 15:1, histamine 10^−5 M plus IFN 25 U/ml): 66.5 ± 2%
NKCC (cell lysis % ± SEM) (K562 target cells; Exp 3, K562, 15:1, histamine 10^−5 M, medium (no IFN)): 38.6 ± 1%
NKCC (cell lysis % ± SEM) (K562 target cells; Exp 3, K562, 15:1, histamine 10^−6 M plus IFN 25 U/ml): 56.3 ± 2%
NKCC (cell lysis % ± SEM) (K562 target cells; Exp 3, K562, 15:1, histamine 10^−6 M, medium (no IFN)): 29.4 ± 1%
cytotoxicity against K562 in the NK cell-concentrated lymphocyte fraction (K562 target cells): unaffected
basal cytotoxicity of lymphocytes in mixtures of monocytes and lymphocytes (K562 target cells): restored
monocyte induced inhibition of the NK cell response to IFN-α (K562 target cells): eliminated

NCCc1c[nH]c2ccc(O)cc12 [Serotonin, serotonin]
NKCC after treatment with IFN (Daudi target cells; [3]): 44.3 ± 1%
NKCC after treatment with Medium (Daudi target cells; [4]): 10.4 ± 1%
NKCC after treatment with IFN (Daudi target cells; agonist 10^−5 M plus IFN-α 25 U/ml, Daudi 6 h, Percoll fraction 7): 33.2 ± 1%
NKCC after treatment with Medium (Daudi target cells; agonist 10^−5 M, Daudi 6 h, Percoll fraction 7): 4.5 ± 0.3%
NKCC after treatment with IFN (Daudi target cells; agonist 10^−6 M plus IFN-α 25 U/ml, Daudi 6 h, Percoll fraction 7): 12.3 ± 1%
NKCC after treatment with Medium (Daudi target cells; agonist 10^−6 M, Daudi 6 h, Percoll fraction 7): 2.2 ± 0.4%
cytotoxicity against K562 in the NK cell-concentrated lymphocyte fraction (K562 target cells): unaffected
basal cytotoxicity of lymphocytes in mixtures of monocytes and lymphocytes (K562 target cells): restored
monocyte induced inhibition of the NK cell response to IFN-α (K562 target cells): eliminated
NK cell cytotoxicity (NKCC) after treatment (K562 target cells; monocytes 0, lymphocytes 12 (×10^−4)): 34 ± 3%
NK cell cytotoxicity (NKCC) after treatment (K562 target cells; monocytes 6, lymphocytes 12 (×10^−4)): 31 ± 2%
NK cell cytotoxicity (NKCC) after treatment (K562 target cells; monocytes 12, lymphocytes 12 (×10^−4)): 31 ± 2%

CNC(=C[N+](=O)[O-])NCCSCc1ccc(CN(C)C)o1 [Ran, ranitidine, reference compound]
NKCC (cell lysis % ± SEM) (Daudi target cells; [2]): 0.0 ± 0.1%

CCCN(CCC)C1CCc2cccc(O)c2C1 (stereo not drawn) [8-OH-DPAT, 8-hydroxy-2-(di-n-propylamino)tetralin, reference compound]
NKCC after treatment with IFN (Daudi target cells; [3]): 43.3 ± 1%
NKCC after treatment with Medium (Daudi target cells; [4]): 8.8 ± 1%
potency and effect in intensifying baseline NKCC and restoring the NK cell's response to IFN-α (Daudi target cells): comparable to that of serotonin

O=C(c1ccc(F)cc1)C1CCN(CCn2c(=O)[nH]c3ccccc3c2=O)CC1 [Ketanserin, reference compound]
influence on the effect of serotonin on NKCC (Daudi target cells; ranitidine 10^−4 M): did not influence the effect of serotonin

CCCN(CCC)[C@H]1CCc2cccc(O)c2[C@H]1C (relative stereo) [(+)-ALK-3, cis-8-hydroxy-1-methyl-2-(di-n-propylamino)tetralin, reference compound]
NKCC after treatment with IFN (Daudi target cells; [3]): 40.4 ± 1%
NKCC after treatment with Medium (Daudi target cells; [4]): 9.1 ± 1%
potency and effect in intensifying baseline NKCC and restoring the NK cell's response to IFN-α (Daudi target cells): comparable to that of serotonin
